According to patent US7091248B2, “Treatment of adrenocortical hypersecretion and tumor growth” (priority 2001, dated 2006):
Several values for one entry are separate records, joined by “and”; a condition that tells them apart may be missing. Equal values may be shown once. Entries after “also recorded” stand apart in the source; their conditions may differ. Read-outs that look alike come from different tables or passages of the source.

Tests used:
[1] = system: mouse adrenal zona fasciculata cells; conditions: cited from earlier work
[2] = system: adrenocortical carcinoma cells; test: Autoradiography of slices from a lymphnode metastasis of an aldosterone producing adrenocortical carcinoma; type: cell-based, human
Experimental: Tissue from a lymphnode metastasis of an aldosterone producing adrenocortical carcinoma was obtained from a person.
(§1) Adrenal tissue was placed in ice-cold isotonic saline solution after removal and kept on ice until embedded in 3% agarose. Precision-cut slices (200 μm) were prepared in a Krumdieck tissue slicer (Alabama Research and Development, Munford, Ala., USA) in ice-cold PBS. Slices of roughly equal size were placed in culture medium on a titanium screen holder and incubated for 24 h (after a 1 h pre-incubation).
Microautoradiography: Slices were incubated with MeSO2-[^14C]DDE (2.6 μM, 35 nCi/ml) or o,p′-[^14C]DDD (3.8 μM, 60 nCi/ml) for 24 h. The labeled substances were added to the medium dissolved in DMSO. Following incubation, slices were fixed overnight in buffered formaldehyde (4%). The fixed slices were dehydrated, embedded in methacrylate, sectioned, and dipped in liquid NTB2 film emulsion, as described elsewhere (4). Autoradiograms were exposed (4° C.) for one year to enable localization of irreversible binding in metyrapone-treated slices. Autoradiograms were developed, stained, and examined as previously described (4).

[3] = system: bilateral non-functioning adrenocortical hyperplasia; test: Bound radioactivity in slices from a bilateral non-functioning adrenocortical hyperplasia; type: cell-based, human
Experimental: Tissue from a bilateral non-functioning adrenocortical hyperplasia was obtained from a person.
as §1
To inhibit CYP-dependent enzyme activity in the slices, incubation wells were supplemented with the CYP11B1 (11β-hydroxylase) inhibitor metyrapone (50 μM) when applicable. […]
Phosphorautoradiography: Semi-quantification of tissue-bound radioactivity was accomplished by apposing tissue sections to imaging plates (BAS-IP MP 2040S Fuji, Japan) for 49 days. The radioactivity in the labeled areas of the adrenal sections was recorded by reading the imaging plate in a Phosphoimager (BAS 1500, Fuji, Japan). For semi-quantification of the tissue-bound radioactivity, a Windows-based bio-imaging analyzer program (ImageGauge, version 3.122, Fujifilm, Japan) was used.
In order to correlate tissue-bound radioactivity and metabolically active regions in the incubated slices, the labeled areas of the images were marked selectively at 1 pixel resolution (1 pixel=100 μm). […]

rat adrenal slices = conditions: ex vivo slice culture; cited from earlier work
adrenal slices = test: Steroid hormone secretion from adrenal slices into culture medium (HPLC); type: cell-based, human; conditions: 25 μM
Experimental: as §1
(§2) To inhibit CYP-dependent enzyme activity in the slices, incubation wells were supplemented with the CYP11B1 (11β-hydroxylase) inhibitor metyrapone (50 μM) when applicable. To stimulate ACTH-regulated enzyme activity in the slices, the synthetic ACTH-analogue tetracosactide (11 nM) was added. The labeled and unlabeled test substances (MeSO2-DDE and o,p′-DDD) were added to the fresh incubation medium, dissolved in DMSO (not exceeding 0.5% of the total volume). Control slices were cultured in medium containing DMSO only.
Cortisol, 11-deoxycortisol, corticosterone, 11-deoxycorticosterone, aldosterone, androstenedione and 17-OH-progesterone concentrations in the medium were measured with HPLC using UV detection (241 nm), as described previously (4). The steroid products were separated using a linear gradient of 18–80% acetonitrile (1 ml/min), obtained by diluting acetonitrile/tetrahydrofuran (90/10 vol %) with methanol/water (40/60 vol %), for 32 min. The amounts of steroids were expressed as nmol/slice. The detection level of cortisol/corticosterone was 5 pmol/ml medium. To adjust for differences in slice size, the steroids were expressed as a percentage of the amount of cortisol from the same slice.

normal adrenal slices [4] = test: Phosphorautoradiography, semi-quantification of tissue-bound radioactivity in normal adrenal slices; type: cell-based, human; conditions: for inhibition of irreversible binding in zona fasciculata/reticularis in metyrapone-exposed slices: metyrapone 50 μM, 24 h of exposure, compared with slices without metyrapone; for amount of tissue-bound radioactivity, MeSO2-[14C]DDE- versus o,p′-[14C]DDD-exposed slices: normal human adrenal slices, phosphorautoradiography
Experimental: Normal adrenal tissue, cortex as well as apparently unaffected medulla, was obtained from a […] MEN 2 patient operated on for an ipsilateral pheochromocytoma. Another normal adrenal was obtained from a patient operated on for a renal carcinoma. Adrenal tissue was placed in ice-cold isotonic saline solution after removal and kept on ice until embedded in 3% agarose. Precision-cut slices (200 μm) were prepared in a Krumdieck tissue slicer (Alabama Research and Development, Munford, Ala., USA) in ice-cold PBS. Slices of roughly equal size were placed in culture medium on a titanium screen holder and incubated for 24 h (after a 1 h pre-incubation). To inhibit CYP-dependent enzyme activity in the slices, incubation wells were supplemented with the CYP11B1 (11β-hydroxylase) inhibitor metyrapone (50 μM) when applicable. To stimulate ACTH-regulated enzyme activity in the slices, the synthetic ACTH-analogue tetracosactide (11 nM) was added. The labeled and unlabeled test substances (MeSO2-DDE and o,p'-DDD) were added to the fresh incubation medium, dissolved in DMSO (not exceeding 0.5% of the total volume). Control slices were cultured in medium containing DMSO only. Phosphorautoradiography: […] The radioactivity in the labeled areas of the adrenal sections was recorded by reading the imaging plate in a Phosphoimager (BAS 1500, Fuji, Japan). For semi-quantification of the tissue-bound radioactivity, a Windows-based bio-imaging analyzer program (ImageGauge, version 3.122, Fujifilm, Japan) was used. […] The values were adjusted according to the difference in specific activity of the two compounds. In order to check the imaging plates with respect to exposure linearity, the same plate was repeatedly exposed to the same sections for 7, 14, 28, 49 and 122 days, reading and erasing the plate between each exposure. […] Intra-exposure variation was measured on three adjacent sections on the same glass-slide.

[5] = system: cells from the human adrenal cortex; conditions: homogenate incubations, read-out: apparent Km-value; cited from earlier work
normal adrenal slices [6] = test: Microautoradiography of irreversible binding in precision-cut normal adrenal slice culture; type: cell-based; conditions: normal human adrenal slices, 24 h; MeSO2-[14C]DDE 2.6 μM, o,p′-[14C]DDD 3.8 μM
Experimental: Normal adrenal tissue, cortex as well as apparently unaffected medulla, was obtained from a […] MEN 2 patient operated on for an ipsilateral pheochromocytoma. Another normal adrenal was obtained from a patient operated on for a renal carcinoma.
as §1, §2
Microautoradiography: Slices were incubated with MeSO2-[^14C]DDE (2.6 μM, 35 nCi/ml) or o,p′-[^14C]DDD (3.8 μM, 60 nCi/ml) for 24 h. The labeled substances were added to the medium dissolved in DMSO. […]

mouse adrenal slices = conditions: cited from earlier work; for irreversible binding in mouse adrenal cortex slices: ex vivo slice culture
CYP 11B1 [7] = target: T1, CYP 11B1 (Homo sapiens, UniProt P15538); set-up: endogenous in cells; host or cells: H295R human adrenocortical carcinoma cell line; conditions: 10 μM; H295R cells; cited from earlier work
T1 sequence (P15538 25-503): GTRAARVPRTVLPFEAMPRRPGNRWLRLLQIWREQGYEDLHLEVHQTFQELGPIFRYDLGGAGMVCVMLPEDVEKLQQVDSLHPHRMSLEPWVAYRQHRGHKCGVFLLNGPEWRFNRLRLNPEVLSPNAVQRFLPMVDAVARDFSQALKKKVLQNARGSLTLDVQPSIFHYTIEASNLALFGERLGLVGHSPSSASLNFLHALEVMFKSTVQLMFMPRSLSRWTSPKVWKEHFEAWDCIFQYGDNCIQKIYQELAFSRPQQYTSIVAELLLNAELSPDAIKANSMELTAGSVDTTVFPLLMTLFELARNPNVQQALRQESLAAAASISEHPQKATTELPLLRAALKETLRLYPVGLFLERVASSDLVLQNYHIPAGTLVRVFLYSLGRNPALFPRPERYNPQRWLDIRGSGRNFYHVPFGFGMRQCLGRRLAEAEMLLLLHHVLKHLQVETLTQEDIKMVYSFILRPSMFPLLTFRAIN

adrenocortical carcinoma = conditions: cited from earlier work
CYP 11B1 [8] = target: T1, CYP 11B1; set-up: expressed in transfected cells; host or cells: V79 hamster cells; conditions: 5 μM; V79 hamster cells transfected with human CYP11B1 DNA; cited from earlier work

Row | SMILES | binding to adrenocortical carcinoma cells [2] | irreversible binding in rat adrenal slices (rat adrenal slices) | cortisol or corticosterone secretion compared with control slices (adrenal slices) | effect on steroid secretion compared with control (adrenal slices) | inhibition of irreversible binding in zona fasciculata/reticularis in metyrapone-exposed slices (normal adrenal slices [4]) | amount of tissue-bound radioactivity, MeSO2-[14C]DDE- versus o,p′-[14C]DDD-exposed slices (normal adrenal slices [4]) | Km [5] [µM] | labeling of adrenal zones in autoradiograms (irreversible binding) (normal adrenal slices [6]) | irreversible binding in mouse adrenal cortex slices (mouse adrenal slices) | further results
1 | CS(=O)(=O)c1cc(C(=C(Cl)Cl)c2ccc(Cl)cc2)ccc1Cl [MeSO2-DDE, 1-(4-Chloro-3-methylsulphonylphenyl)-1-(4-chlorophenyl)-2,2-dichloroethene] | irreversibly bound | very weak binding | no significant difference | increased accumulation of 11-deoxycorticosterone, 11-deoxycortisol and androstenedione | below the detection limit | no significant difference | 1.4 | high and selective labeling of zona fasciculata and zona reticularis; also recorded: confined to both zona fasciculata and zona reticularis | strong irreversible binding | plasma corticosterone levels ([1]; mice, following exposure): reduced plasma corticosterone levels; irreversible binding to cellular macromolecules in vivo ([1]; mouse adrenal zona fasciculata cells): cell-specific irreversible binding; binding to adrenocortical carcinoma cells ([2]; listed as MeSO2-[^14C]DDE): selective binding; irreversible binding in nonfunctional adrenocortical hyperplasia [3]: irreversibly bound; 11-deoxycortisol in the culture medium (adrenal slices): detectable only in the culture medium of MeSO2-DDE-exposed slices; 11-deoxycorticosterone secretion to the medium (adrenal slices; compared with o,p′-DDD exposed slices and control slices): significant increase; androstenedione secretion (adrenal slices; compared with o,p′-DDD-exposed slices): increased; effect on CYP 11B1 enzyme activity (CYP 11B1 [7]): inhibit CYP 11B1 enzyme activity
2 | Clc1ccc(C(c2ccccc2Cl)C(Cl)Cl)cc1 (stereo not drawn) [o,p′-DDD, 1-(2-chlorophenyl)-1-(4-chlorophenyl)-2,2-dichloroethane] | selective binding | negligable irreversible binding | no significant difference | did not produce any visible effect | 32% | no significant difference | 24 | high and selective labeling of zona fasciculata and zona reticularis; also recorded: localized in a similar way | negligable irreversible binding | patients not cured by surgery who responded to treatment (adrenocortical carcinoma; adrenocortical carcinoma patients): 194 out of 551; side effects (adrenocortical carcinoma; patients, therapeutic doses): dose-dependent side effects in the gastrointestinal tract (nausea, vomiting and diarrhea) and CNS (dizziness and headaches); therapeutically insufficient plasma concentrations (adrenocortical carcinoma; patients): below 10 μg/ml and < 31 μM; irreversible binding in mouse adrenal cortex slices (mouse adrenal slices; listed as o,p′-[^14C]DDD): very weak
3 | CC(C)(C(=O)c1cccnc1)c1cccnc1 [metyrapone] |  |  |  |  |  |  |  |  |  | block of synthesis of cortisol from 11-deoxycortisol (CYP 11B1 [8]): 86%; effect of metyrapone on irreversible protein binding and toxicity of MeSO2-DDE in the adrenal zona fasciculata ([1]; mouse, in vivo): effectively blocked; effect of metyrapone on irreversible MeSO2-[14C]DDE-binding and corticosterone secretion (mouse adrenal slices; mouse adrenal slice culture and mouse adrenal homogenate): inhibits
